Assay results from patent publication US6730665B1, “Treatment of bone cancer” (Mayo Foundation for Medical Education and Research, priority 1999, dated 2004).

Columns and labels:
[1] = test system: osteosarcoma cells and immortalized cell lines; assay: Cell survival, summary statement; assay type: cell-based; details: for impact on cell survival (in words): 2 μM, 72 hours; for reduction of cell survival: 20 μM
Experimental: (§1) MG63 and TE85 human osteosarcoma cells, and ROS 17/2.8 rat osteosarcoma cells were grown in DMEM/F12 phenol-red free medium containing 10% charcoal-stripped fetal bovine serum (FBS) and supplemented with 100 units/ml penicillin, 100 μg/ml streptomycin. Cell were incubated at 37° C. under 5% CO2 in air. Cells were plated at 5×10^4 cells per well into 24 well plates containing 1 ml of medium per well. After allowing the cells to attach overnight, media in the wells were replaced with fresh 1 ml medium. Human fetal osteoblasts (hFOB) cells and hFOB cells overexpressing estrogen receptor-alpha (hFOB-ERα) and estrogen receptor-beta (hFOB-ERβ) were grown in DMEM/F12 medium containing FBS, penicillin, streptomycin and Geneticin (300 μg/mL). The laboratory of Dr. B. L. Riggs at Mayo Clinic provided primary human osteoblast (HOB) cells. HOB cells were basically established from cancellous bone obtained as waste from orthopedic procedures and cultured as explants to generate the osteoblast-like monolayers as described by Borke et al., J. Clin. Endocrinol. Metab., 1988, 67:1299-1304. Human FOB cells and hFOB cells stably transfected with estrogen receptors (ERs) were maintained at 34° C., while all other cells were incubated at 37° C. under 5% CO2 in air.
(§2) Estrogen metabolites were diluted 1000 fold to give the final required concentrations in each well, and maintained for 72 hrs. The metabolites 2ME, 2OHE, and E2 were purchased from Sigma Chemical Company (St. Louis, Mo.). Stock solutions for each metabolite were made in 95% ethanol. Cell growth was measured by taking the viable cell count. At the end of metabolite treatment, cells were harvested, stained with trypan blue, and counted under a light microscope.

[2] = test system: MG63 human osteosarcoma cells; assay: Cell survival, viable cell count with trypan blue; assay type: cell-based; details: for cell survival: 20 and 50 μM
Experimental: as §1, §2
MG63 cells were treated with 0, 2, and 10 μM concentrations of 2ME in the presence or absence of 100 nM ICI for 72 hours. The cells were harvested and the viable cell counts were taken after staining with trypan blue.

SMILES	impact on cell survival (in words) [1]	reduction of cell survival [1] [%]	impact on cell survival (in words) ([2]; 2 μM, 72 hrs)	cell survival ([2]; 72 hrs)	impact on cell survival (in words) ([2]; 100 nM ICI alone, 72 hours)
COc1cc2c(cc1O)CC[C@@H]1[C@@H]2CC[C@]2(C)C(=O)CC[C@@H]12 [2-methoxyestrone]	minimal impact	–	–	–	–
C[C@]12CC[C@@H]3c4cc(O)c(O)cc4CC[C@H]3[C@@H]1CC[C@@H]2O [2OHE, 2-hydroxyestradiol]	minimal impact	60	little impact	about 40%	–
C[C@]12CC[C@@H]3c4ccc(O)cc4CC[C@H]3[C@@H]1CC[C@@H]2O [E2, 17β-estradiol]	minimal impact	50	little impact	~50%	–
C[C@]12CC[C@@H]3c4ccc(O)cc4C[C@@H](CCCCCCCCC[S+]([O-])CCCC(F)(F)C(F)(F)F)[C@H]3[C@@H]1CC[C@@H]2O (stereo partly shown) [ICI]	–	–	–	–	little impact
